Some test systems named below: T-47D breast; A498 renal; M14 melanoma; SK-MEL-5 melanoma; DU-145 prostate; OVCAR-3 ovarian; HCT-116 colon; CCRF-CEM leukemia; SN12C renal.
What all share (assay): inhibition of tumour cell growth, NCI panel, 48 h

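Five compound concentrations were applied to cells in 96-well plates for 48 hours; endpoints were derived by simple linear interpolation of the resulting dose-response curve. GI50 marks 50% less growth. TGI denotes the concentration required for complete inhibition of growth.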

Turning to `N=c1oc2c(Cl)cc(Cl)cc2cc1C(=O)Nc1cccc2ccccc12`, the TGI with T-47D breast is 25.2 µM; in the assay on A498 renal it was 23.7 µM; with M14 melanoma, over 100 µM; in the assay with SK-MEL-5 melanoma, over 100 µM; in the assay on DU-145 prostate, over 100 µM; with OVCAR-3 ovarian, over 40 µM. In addition, the TGI in the assay on HCT-116 colon was 40.6 µM; in the assay with CCRF-CEM leukemia, 14.4 µM; in the assay on SN12C renal, 12.8 µM.

As for `CCSCCC(N)C(=O)O` (stereo unspecified), the TGI in the assay with T-47D breast, in the assay on A498 renal, with M14 melanoma, in the assay with SK-MEL-5 melanoma, in the assay on DU-145 prostate and with OVCAR-3 ovarian was over 100 µM throughout. Besides, the TGI in the assay with HCT-116 colon and in the assay on SN12C renal was over 100 µM each time.

With `COc1ccc2nc(-n3c(/C=C/c4ccccc4O)nc4ccccc4c3=O)sc2c1`, the TGI with A498 renal was over 100 µM; in the assay with M14 melanoma, over 100 µM; in the assay on SK-MEL-5 melanoma, 66.2 µM; in the assay with DU-145 prostate it was over 100 µM; in the assay on OVCAR-3 ovarian, over 100 µM; in the assay with HCT-116 colon it was 65.3 µM. In the assay with CCRF-CEM leukemia, this compound yielded a TGI of over 100 µM.

On to `COc1ccc(/C=C2\C(=O)N(C3OC(COC(C)=O)C(OC(C)=O)C(OC(C)=O)C3OC(C)=O)c3ccccc3N=C2N)cc1` (stereo unspecified), for which the TGI in the assay with T-47D breast was 40.8 µM; in the assay with A498 renal, over 100 µM; in the assay with M14 melanoma it was 71.8 µM; in the assay on SK-MEL-5 melanoma it was 23.4 µM; with DU-145 prostate it was 87.6 µM; in the assay with OVCAR-3 ovarian, 65.1 µM. Moreover, the figures for the TGI with HCT-116 colon, in the assay on CCRF-CEM leukemia and with SN12C renal were 49.7 µM, over 100 µM and over 100 µM, respectively.

With `C[C@]12CC[C@@H]3c4ccc(OP(=O)(O)O)cc4CC[C@H]3[C@@H]1CCC2=O`, the TGI in the assay on T-47D breast was over 100 µM; with A498 renal, over 100 µM; in the assay on M14 melanoma, over 100 µM; in the assay with SK-MEL-5 melanoma, 69.2 µM; with DU-145 prostate, over 100 µM; in the assay on OVCAR-3 ovarian it was over 100 µM. Besides, the TGI in the assay with HCT-116 colon, in the assay on CCRF-CEM leukemia and in the assay on SN12C renal was over 100 µM throughout.

`CC[C@H]1C=CCC[C@@]2(C[C@@H]3CC[C@@H]4[C@H](C(=O)OCCCCCCCCCCCCCCCC(=O)O)[C@]5(CCC[C@@H](C)O5)NC(=[N+]34)N2)O1`: the TGI in the assay on T-47D breast was found to be 11.9 µM; with A498 renal, 1.23 µM; in the assay on M14 melanoma, 0.212 µM; in the assay with SK-MEL-5 melanoma it was 0.251 µM; with DU-145 prostate it was 8 µM; with OVCAR-3 ovarian, 5.83 µM. Moreover, the values for the TGI with HCT-116 colon, in the assay on CCRF-CEM leukemia and with SN12C renal were 2.16 µM, 0.0215 µM and 7.93 µM, respectively.

Regarding `O=C(CCCCCCC(=O)Nc1ccc(N(CCCl)CCCl)cc1)NO`, the GI50 with T-47D breast was 1.63 µM; in the assay with A498 renal it was 3.11 µM; in the assay with M14 melanoma, 2.43 µM; in the assay on SK-MEL-5 melanoma, 1.33 µM; with DU-145 prostate, 2.72 µM; in the assay with OVCAR-3 ovarian, 1.92 µM. The figures for the GI50 in the assay with HCT-116 colon, with CCRF-CEM leukemia and with SN12C renal were 1.97 µM, 0.405 µM and 0.8 µM, respectively. In addition, the TGI in the assay with T-47D breast amounted to 7.37 µM; in the assay with A498 renal it was 13.1 µM; with M14 melanoma it was 10.7 µM; in the assay with SK-MEL-5 melanoma, 2.92 µM; in the assay on DU-145 prostate it was 19.3 µM; in the assay with OVCAR-3 ovarian, 6.66 µM. In addition, the TGI in the assay with HCT-116 colon is 12.9 µM; with CCRF-CEM leukemia it was over 100 µM; with SN12C renal, 18.6 µM.

For the compound `CN(C)CC(=O)Nc1ccc(Cn2nnc3c2C(=O)c2nnn(Cc4ccc(NC(=O)CN(C)C)cc4)c2C3=O)cc1`, the GI50 in the assay on T-47D breast was 0.166 µM; with A498 renal it was 1.07 µM; in the assay with M14 melanoma it was 0.14 µM; in the assay on SK-MEL-5 melanoma it was 0.151 µM; with DU-145 prostate, 0.175 µM; with OVCAR-3 ovarian, 0.0318 µM. Further, the GI50 is 0.0843 µM in the assay on HCT-116 colon and 0.204 µM in the assay with CCRF-CEM leukemia. Further, the TGI came out at 0.449 µM in the assay with T-47D breast; 2.29 µM in the assay on A498 renal; 0.284 µM with M14 melanoma; 0.286 µM in the assay on SK-MEL-5 melanoma; 0.337 µM with DU-145 prostate; 0.132 µM with OVCAR-3 ovarian. Besides, the TGI was determined as 0.275 µM with HCT-116 colon and 0.747 µM in the assay on CCRF-CEM leukemia.

With `Cn1c(=S)[nH]c2sc3c(c2c1=O)CCSC3`, the TGI in the assay with T-47D breast was 90.2 µM; in the assay with A498 renal it was over 100 µM; in the assay with M14 melanoma, over 100 µM; with SK-MEL-5 melanoma it was over 100 µM; with DU-145 prostate it was 57.1 µM; in the assay on OVCAR-3 ovarian it was 61 µM. Further, the TGI with HCT-116 colon and in the assay on SN12C renal was over 100 µM in each case.

With `CC(=O)Nc1cc([As](=O)(O)O)ccc1O`, the TGI in the assay on T-47D breast, in the assay with A498 renal, with M14 melanoma, in the assay on SK-MEL-5 melanoma, with DU-145 prostate and in the assay on OVCAR-3 ovarian was over 100 µM throughout. Also, the TGI with HCT-116 colon, in the assay with CCRF-CEM leukemia and in the assay on SN12C renal was over 100 µM each time.

Turning to `Cn1c(=O)c2c(nc(-n3nc(-c4ccc(Cl)cc4)cc3N)n2C)n(C)c1=O`, the TGI in the assay on A498 renal, in the assay with M14 melanoma, with SK-MEL-5 melanoma, with DU-145 prostate, in the assay on OVCAR-3 ovarian and in the assay on HCT-116 colon was over 100 µM each time. Also, the TGI in the assay on CCRF-CEM leukemia and with SN12C renal was over 100 µM each time.

`CC1SC(c2ccccc2)N(CCc2cccs2)C1=O` (stereo unspecified): the GI50 was 2.16 µM in the assay with T-47D breast; 2.63 µM in the assay on A498 renal; 1.67 µM with SK-MEL-5 melanoma; 7.08 µM in the assay on DU-145 prostate; 3.03 µM in the assay with OVCAR-3 ovarian; 2.99 µM in the assay on HCT-116 colon. The GI50 in the assay with CCRF-CEM leukemia was 3.26 µM; with SN12C renal it was 5.43 µM. The TGI with T-47D breast was 18.7 µM; in the assay with A498 renal, 14.2 µM; in the assay with SK-MEL-5 melanoma it was 3.15 µM; with DU-145 prostate, 19.9 µM; in the assay on OVCAR-3 ovarian it was 13.3 µM; with HCT-116 colon it was 12.3 µM. In addition, the TGI in the assay with CCRF-CEM leukemia is 35.2 µM; in the assay on SN12C renal, 20.1 µM.

These data come from PubChem BioAssay (NCI).
